Common to all, as to assay: Bacterial Assay: Determination of Antibacterial Activity (MIC, broth microdilution or agar dilution)
Common to all, as to assay type: cell-based

Assay [1] deals with Clostridium difficile (Isolate ID 027-01). The note with it: Clostridioides difficile, 48 h, read-out: MIC (μg/mL) C. difficile (027-01). The procedure, abridged: (§1)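 MICs were set by CLSI broth microdilution or agar dilution for anaerobes, read visually after 48 hours at 37° C. under anaerobic gas packs. Medium was reinforced clostridial medium with 0.1% defibrinated horse blood; values are binned as A ≦1.01, B >1.0-4.0, C >4.0-16 μg/mL.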

Assay [2] relates to Clostridium difficile (Isolate ID ATCC 9689). The note with it: Clostridioides difficile, ATCC9689, 48 h, read-out: C. difficile MIC Activity Range. The procedure, abridged: as §1
Assay [3] relates to Clostridium difficile (Isolate ID BI-9). The note with it: Clostridioides difficile, 48 h, read-out: MIC (μg/mL) C. difficile (B-I9). The procedure, abridged: as §1

≈ marks a conversion by molar mass, not a printed value.

Take `N/C(=N\O)c1c(F)ccc(OCc2nc(-c3ccc(Cl)cc3)ns2)c1F` [Compound 21, 3-{[3-(4-chlorophenyl)-1,2,4-thiadiazol-5-yl]methoxy}-2,6-difluoro-N′-hydroxybenzene-carboximidamide]: the figures for the MIC in assay [1], in assay [2] and in assay [3] were 5 µg/mL (≈ 12.6 µM), below 1.01 mg/L and 5 µg/mL (≈ 12.6 µM), respectively.
For the molecule `NC(=O)c1c(F)ccc(OC(CO)c2nc(-c3ccc(Cl)cc3)c(Br)o2)c1F` (stereo not drawn) [Compound 33, 3-{1-[5-bromo-4-(4-chlorophenyl)-1,3-oxazol-2-yl]-2-hydroxyethoxy}-2,6-difluorobenzamide], the MIC was 0.12 µg/mL (≈ 0.253 µM) in assay [1], below 1.01 mg/L in assay [2] and 0.5 µg/mL (≈ 1.06 µM) in assay [3].
Consider `CN(C)C(=O)OCC(Oc1ccc(F)c(C(N)=O)c1F)c1nc(-c2ccc(C(F)(F)F)cc2)c(Br)o1` (stereo not drawn) [Compound 49, 2-{5-bromo-4-[4-(trifluoromethyl)phenyl]-1,3-oxazol-2-yl}-2-(3-carbamoyl-2,4-difluorophenoxy)ethyl dimethylcarbamate], for which the figures for the MIC in assay [1], in assay [2] and in assay [3] were 2 µg/mL (≈ 3.46 µM), 1 to 4 mg/L (≈ 1.73 to 6.92 µM) and 2 µg/mL (≈ 3.46 µM), respectively.
For `CC(=O)OCC(Oc1cccc(C(N)=O)c1F)c1nc(-c2ccc(C(F)(F)F)cc2)c(Br)o1` (stereo not drawn) [Compound 57, 2-{5-bromo-4-[4-(trifluoromethyl)phenyl]-1,3-oxazol-2-yl}-2-(3-carbamoyl-2-fluorophenoxy)ethyl acetate], the MIC is 0.5 µg/mL in assay [1], below 1.01 mg/L in assay [2] and 0.5 µg/mL in assay [3].
Turning to `COc1ncccc1CNC(=O)OCC(Oc1ccc(F)c(C(N)=O)c1F)c1nc(-c2ccc(C(F)(F)F)cc2)c(Br)o1` (stereo not drawn) [Compound 74, 2-{5-bromo-4-[4-(trifluoromethyl)phenyl]-1,3-oxazol-2-yl}-2-(3-carbamoyl-2,4-difluorophenoxy)ethyl [(2-methoxypyridin-3-yl)methyl]carbamate], the results for the MIC in assay [1], in assay [2] and in assay [3] were 0.5 µg/mL (≈ 0.745 µM), below 1.01 mg/L and 0.5 µg/mL (≈ 0.745 µM), respectively.
For `Cn1cccc1CNC(=O)OCC(Oc1ccc(F)c(C(N)=O)c1F)c1nc(-c2ccc(C(F)(F)F)cc2)c(Br)o1` (stereo not drawn) [Compound 80, 2-{5-bromo-4-[4-(trifluoromethyl)phenyl]-1,3-oxazol-2-yl}-2-(3-carbamoyl-2,4-difluorophenoxy)ethyl [(1-methyl-1H-pyrrol-2-yl)methyl]carbamate], the results for the MIC in assay [1], in assay [2] and in assay [3] were 0.5 µg/mL (≈ 0.777 µM), below 1.01 mg/L and 0.5 µg/mL (≈ 0.777 µM), respectively.
Turning to `NC(=O)c1c(F)ccc(OCc2nc(-c3ccc(Cl)cc3)c(Br)o2)c1F` [Compound 104, 3-{[5-bromo-4-(4-chlorophenyl)-1,3-oxazol-2-yl]methoxy}-2,6-difluorobenzamide], the MIC in assay [1] is 0.12 µg/mL (≈ 0.27 µM); in assay [2] it was below 1.01 mg/L; in assay [3] it was 0.12 µg/mL (≈ 0.27 µM).
Consider `NC(=O)c1c(F)ccc(OCc2nc(-c3ccc(OC(F)(F)F)cc3)c(Br)s2)c1F` [Compound 105, 3-({5-bromo-4-[4-(trifluoromethoxy)phenyl]-1,3-thiazol-2-yl}methoxy)-2,6-difluorobenzamide], for which the MIC is 0.5 µg/mL (≈ 0.982 µM) in assay [1], below 1.01 mg/L in assay [2] and 1 µg/mL (≈ 1.96 µM) in assay [3].
In the same order, the values of `CCCCCCCCCOc1ccc(F)c(/C(N)=N/O)c1F` [Compound 106, 2,6-difluoro-N′-hydroxy-3-(nonyloxy)benzenecarboximidamide] are 0.5 µg/mL (≈ 1.59 µM), below 1.01 mg/L and 0.5 µg/mL (≈ 1.59 µM).
In the same order, the values of `NC(=O)c1c(F)ccc(OCc2ccn(-c3ccc(OC(F)(F)F)cc3)n2)c1F` [Compound 108, 2,6-difluoro-3-({1-[4-(trifluoromethoxy)phenyl]-1H-pyrazol-3-yl}methoxy)benzamide] are 0.5 µg/mL (≈ 1.21 µM), below 1.01 mg/L and 0.5 µg/mL (≈ 1.21 µM).
Take `NC(=O)c1c(F)ccc(OCc2nc(-c3ccc(S(F)(F)(F)(F)F)cc3)ns2)c1F` [Compound 110, 2,6-difluoro-3-({3-[4-(pentafluoro-lambda~6~- sulfanyl)phenyl]-1,2,4-thiadiazol-5-yl}methoxy)benzamide]: the MIC was 0.06 µg/mL (≈ 0.127 µM) in assay [1], below 1.01 mg/L in assay [2] and 0.06 µg/mL (≈ 0.127 µM) in assay [3].
On to `NC(=O)c1c(F)ccc(OCCc2nc(-c3ccc(OC(F)(F)F)cc3)cs2)c1F` [Compound 111, 2,6-difluoro-3-(2-{4-[4-(trifluoromethoxy)phenyl]-1,3-thiazol-2-yl}ethoxy)benzamide], for which the MIC in assay [1] is 0.25 µg/mL (≈ 0.563 µM); in assay [2], below 1.01 mg/L; in assay [3], 0.25 µg/mL (≈ 0.563 µM).
Regarding `NC(=O)c1c(F)ccc(OCc2nc(-c3ccc(S(F)(F)(F)(F)F)cc3)cs2)c1F` [Compound 112, 2,6-difluoro-3-({4-[4-(pentafluoro-lambda~6~- sulfanyl)phenyl]-1,3-thiazol-2-yl}methoxy)benzamide], the figures for the MIC in assay [1], in assay [2] and in assay [3] were 0.12 µg/mL (≈ 0.254 µM), below 1.01 mg/L and 0.12 µg/mL (≈ 0.254 µM), respectively.
For the molecule `NC(=O)c1c(F)ccc(OCCCOc2ccc(OC(F)(F)F)cc2)c1F` [Compound 126, 2,6-difluoro-3-{3-[4-(trifluoromethoxy)phenoxy]propoxy}benzamide], the MIC in assay [1] is 0.5 µg/mL (≈ 1.28 µM); in assay [2] it was below 1.01 mg/L; in assay [3], 0.5 µg/mL (≈ 1.28 µM).
As to `NC(=O)c1c(F)ccc(OCCCCOc2ccc(Cl)cc2)c1F` [Compound 127, 3-[4-(4-chlorophenoxy)butoxy]-2,6-difluoro-benzamide], the MIC was 0.25 µg/mL (≈ 0.703 µM) in assay [1], below 1.01 mg/L in assay [2] and 0.25 µg/mL (≈ 0.703 µM) in assay [3].
On to `NC(=O)c1c(F)ccc(OCCCCOc2ccc(OC(F)(F)F)cc2)c1F` [Compound 128, 2,6-difluoro-3-{4-[4-(trifluoromethoxy)phenoxy]butoxy}benzamide], for which the MIC in assay [1] was 0.06 µg/mL (≈ 0.148 µM); in assay [2], below 1.01 mg/L; in assay [3], 0.12 µg/mL (≈ 0.296 µM).
In the same order, the values of `NC(=O)c1c(F)ccc(OCCCCOc2ccc(C(F)(F)F)cc2)c1F` [Compound 129, 2,6-difluoro-3-{4-[4 (trifluoromethyl)phenoxy]butoxy}benzamide] are 0.06 µg/mL (≈ 0.154 µM), below 1.01 mg/L and 0.06 µg/mL (≈ 0.154 µM).
Turning to `NC(=O)c1c(F)ccc(OCCCCCOc2ccc(Cl)cc2)c1F` [Compound 130, 3-{[5-(4-chlorophenoxy)pentyl]oxy}-2,6-difluorobenzamide], the MIC in assay [1] is 0.5 µg/mL (≈ 1.35 µM); in assay [2], below 1.01 mg/L; in assay [3], 0.5 µg/mL (≈ 1.35 µM).
In the case of `NC(=O)c1c(F)ccc(OCCCCCOc2ccc(OC(F)(F)F)cc2)c1F` [Compound 131, 2,6-difluoro-3-({5-[4-(trifluoromethoxy)phenoxy]pentyl}oxy) benzamide], the MIC was 0.25 µg/mL (≈ 0.596 µM) in assay [1], below 1.01 mg/L in assay [2] and 0.25 µg/mL (≈ 0.596 µM) in assay [3].
With `NC(=O)c1c(F)ccc(OCCCCCOc2ccc(C(F)(F)F)cc2)c1F` [Compound 132, 2,6-difluoro-3-({5-[4 (trifluoromethyl)phenoxy]pentyl}oxy) benzamide], the MIC in assay [1] was 0.25 µg/mL (≈ 0.62 µM); in assay [2], below 1.01 mg/L; in assay [3], 0.5 µg/mL (≈ 1.24 µM).
Regarding `NC(=O)c1c(F)ccc(OCCCCCCOc2ccc(Cl)cc2)c1F` [Compound 133, 3-{[6-(4-chlorophenoxy)hexyl]oxy}-2,6-difluorobenzamide], the MIC in assay [1] was 0.5 µg/mL (≈ 1.3 µM); in assay [2], below 1.01 mg/L; in assay [3], 0.5 µg/mL (≈ 1.3 µM).

Values taken from patent publication US20170305943A1, “COMPOUNDS FOR THE TREATMENT OF BACTERIAL INFECTIONS” (priority 2014, published 2017).
